Tests used:
[1] = tested on: human vessels in the tumors; experiment: Count of human vessels in tumors after therapy; format: in vivo; details: large tumors at end of experiment of FIG. 7
Description: (§1) Large tumors of two different sizes (i.e., 350-450 mm^3 and 100-250 mm^3) were obtained from each group of mice for immunostaining and vessel counting. Sections of the tumors were stained with individual mAbs or a mixture of anti-human CD105 and CD31 mAbs and a mixture of anti-mouse CD105 and CD31 mAbs as described above. Human and mouse vessels were counted separately as described above. An average of vessel counts in the two tumors was compared between different groups.
(§2) Human and murine blood vessels were immunostained in the large human tumors from the chimera mice after the mice were sacrificed at the end of experiment shown in FIG. 7. Number of murine vessels in the tumors was 52, 47, 47 and 34 per 100× field for groups A, B, C and D, respectively (see FIG. 7 for the groups). Therefore, SN6j (group B) and CPA (group C) caused only a small decrease (approximately 10%) in the number of murine vessels in the tumors compared with the control (group A). However, combination of SN6j and CPA (group D) caused a larger (i.e., 35%) decrease in the number of murine vessels. […] CPA was not effective for inhibiting human vessels and only weakly suppressive against murine vessels.

[2] = tested on: murine vessels in the tumors; experiment: Count of murine vessels in tumors after therapy; format: in vivo, mouse; details: large tumors at end of experiment of FIG. 7
Description: as §1, §2

Colon-26 tumors = experiment: Therapy of established Colon-26 tumors in BALB/c mice; format: in vivo; details: SN6j 1.8 μg/g i.v., DOX 0.5 μg/g i.p.
Description: Antiangiogenic Therapy of Preformed Colon Tumors in Mice. Colon-26 cells (1.25×10^5 cells in 0.1 ml PBS) were inoculated subcutaneously (s.c.) into left flank of BALB/c mice. […] Doxorubicin (0.5 μg/g body weight) was injected intraperitoneally (i.p.) into mice. The administration was repeated three times at 4 days intervals.
Follow-up of Treatment Efficacy.
SN6j (1.8 μg/g body weight) and MOPC195v (1.8 μg/g body weight) were injected i.v. while DOX (0.5 μg/g body weight) was injected i.p. The injectections were repeated three times at 4 days intervals.
Details of the analysis were described by Yokoyama et al. (31), Yu et al. (32) and us (25). […] This improvement persisted until the end of the therapy experiment (Table 3).

## O=P1(N(CCCl)CCCl)NCCCO1 (stereo not shown) [CPA, cyclophosphamide]
[1]
  number of human vessels in the tumors per 100× field: 36 per 100× field
[2]
  decrease in the number of murine vessels compared with the control: approximately 10%
  number of murine vessels in the tumors per 100× field: 47 per 100× field

## COc1cccc2c1C(=O)c1c(O)c3c(c(O)c1C2=O)C[C@@](O)(C(=O)CO)C[C@@H]3O[C@H]1C[C@H](N)[C@H](O)[C@H](C)O1 [DOX, Doxorubicin]
Colon-26 tumors; Day 4 after tumor cell inoculation, all mice
  Fractional tumor volume (FTV) relative to untreated controls: 0.954
Colon-26 tumors; Day 4 after tumor cell inoculation, tumors of >4 mm^3 at onset of therapy
  Fractional tumor volume (FTV) relative to untreated controls: 0.979
Colon-26 tumors; Day 7 after tumor cell inoculation, all mice
  Fractional tumor volume (FTV) relative to untreated controls: 0.741
Colon-26 tumors; Day 7 after tumor cell inoculation, tumors of >4 mm^3 at onset of therapy
  Fractional tumor volume (FTV) relative to untreated controls: 0.753
Colon-26 tumors; Day 9 after tumor cell inoculation, all mice
  Fractional tumor volume (FTV) relative to untreated controls: 0.895
Colon-26 tumors; Day 9 after tumor cell inoculation, tumors of >4 mm^3 at onset of therapy
  Fractional tumor volume (FTV) relative to untreated controls: 0.954
Colon-26 tumors; Day 11 after tumor cell inoculation, all mice
  Fractional tumor volume (FTV) relative to untreated controls: 0.956
Colon-26 tumors; Day 11 after tumor cell inoculation, tumors of >4 mm^3 at onset of therapy
  Fractional tumor volume (FTV) relative to untreated controls: 1.018
Colon-26 tumors; Day 13 after tumor cell inoculation, all mice
  Fractional tumor volume (FTV) relative to untreated controls: 0.860
Colon-26 tumors; Day 13 after tumor cell inoculation, tumors of >4 mm^3 at onset of therapy
  Fractional tumor volume (FTV) relative to untreated controls: 1.009
Colon-26 tumors; Day 15 after tumor cell inoculation, all mice
  Fractional tumor volume (FTV) relative to untreated controls: 0.976
Colon-26 tumors; Day 15 after tumor cell inoculation, tumors of >4 mm^3 at onset of therapy
  Fractional tumor volume (FTV) relative to untreated controls: 1.159
Colon-26 tumors; Day 17 after tumor cell inoculation, all mice
  Fractional tumor volume (FTV) relative to untreated controls: 0.813
Colon-26 tumors; Day 17 after tumor cell inoculation, tumors of >4 mm^3 at onset of therapy
  Fractional tumor volume (FTV) relative to untreated controls: 0.954
Colon-26 tumors; Day 19 after tumor cell inoculation, all mice
  Fractional tumor volume (FTV) relative to untreated controls: 0.873
Colon-26 tumors; Day 19 after tumor cell inoculation, tumors of >4 mm^3 at onset of therapy
  Fractional tumor volume (FTV) relative to untreated controls: 1.101
